Laboratory results taken from patent US20160177395A1, “BIOMARKERS FOR THE PREDICTION OF RENAL INJURY” (priority 2007, published 2016).
“And” between values parts separate entries of the source, which are not always exact repeats. Equal values may be shown once.

Tested on: kidney tissues of treated or untreated rats
Assay: Real-time qRT-PCR of marker transcripts in kidney tissue panel, discovery stage (Table 22)
Format: in vivo, rat
Set-up: AI502869_DB71_seg0 normalized Real Time PCR expression: unit not given beside the values
Details: listed as Cis; for H33998_DB71_seg19 normalized Real Time PCR / MUSCYCG1R_DB81_seg15-17 normalized Real Time PCR / RATLRFI_DB71_seg9 normalized Real Time PCR / RATRAB13X_DB71_seg11-13 normalized Real Time PCR / RNU24174_DB71_seg8 normalized Real Time PCR / W41270_DB81_seg11 normalized Real Time PCR / W64472_DB81_seg2 normalized Real Time PCR / W83813_DB81_seg27 normalized Real Time PCR / AA686189_DB71_seg6 normalized Real Time PCR expression / AA799594_DB71_seg0 normalized Real Time PCR expression / AA964541_DB71_seg0 normalized Real Time PCR expression / AI045075_DB71_seg6 normalized Real Time PCR expression / AI454051_DB71_seg0 normalized Real Time PCR expression / AI502869_DB71_seg0 normalized Real Time PCR expression / AW919147_DB71_seg0 normalized Real Time PCR expression / BI293562_DB71_seg2 normalized Real Time PCR expression / H31045_DB71_seg5 normalized Real Time PCR expression / H31799_DB71_seg23 normalized Real Time PCR expression / H31883_DB71_seg13 normalized Real Time PCR expression: rat kidney
Protocol: Before RT preparation the RNA was treated with DNA-free (Ambion, cat. No. AM1906) DNase treatment and removal—according to manufacturer protocol. DNase procedure was repeated until no DNA is detected in a PCR reaction using the RNA samples.
The mixture is then incubated for 5 min at 65° C. and then quickly chilled on ice. Thereafter, 20 μl of 5× SuperscriptII first strand buffer (Invitrogen, Cat. No. Y00146), 9.6 μl 0.1M DTT (Invitrogen, Cat. No. Y00147) and 160 units RNasin (Promega, Cat. No. N251A) are added, and the mixture is incubated for 10 min at 25° C., followed by further incubation at 42° C. for 2 min. […] The resulting cDNA is diluted 1:20 in TE buffer (10 mM Tris pH=8, 1 mM EDTA pH=8).
cDNA (5 μl), prepared as described above, is used as a template in Real-Time PCR reactions using the SYBR Green I assay (PE Applied Biosystem) with specific primers in 100 nM concentration if not indicated otherwise and UNG Enzyme (Eurogentech or equal) Amplification is effected as follows: 50° C. for 2 min, 95° C. for 10 min, and then 40 cycles of 95° C. for 15 sec, followed by 60° C. for 1 min (if not indicated otherwise). Amplification step is followed by dissociation step. Detection is performed by using the PE Applied Biosystem SDS 7000. The cycle in which the reactions achieved a threshold level (Ct) of fluorescence is registered and is used to calculate the relative transcript quantity in the RT reactions. Non-detected samples are assigned Ct value of 41 and are calculated accordingly. The relative quantity is calculated using the equation Q=efficiencŷ-Ct. The efficiency of the PCR reaction is calculated from a standard curve, created by using serial dilutions of several reverse transcription (RT) reactions. To minimize inherent differences in the RT reaction, the resulting relative quantities are normalized to normalization factor calculated as follows: […]
The relative quantity (Q) of each housekeeping gene in each sample is calculated as described above. In order to calculate the “relative Q relative to MED” each Q for each HSKP gene is divided by the median quantity of this gene in all panel samples. To finally achieve the normalization factor of each sample the geometric mean of all four “relative Q relative to MED” was calculated. The normalization factor was then used for further calculations.
The markers of the present invention were tested with regard to their expression in a panel of kidney tissues samples from treated and control rats. Unless otherwise noted, all experimental data relates to the novel polynucleotides and proteins of the present invention, named according to the segment being tested (as expression was tested through RT-PCR as described). Tests were then performed as described in the “Materials and Experimental Procedures” section above.
The qRT-PCR measurements were normalized according to each samples normalization factor as described in “RT Preparation and Real-Time qRT-PCR Analysis” and further multiplied by a constant factor for ease of viewing.

[1] = day1, individual animals (F and M)
[2] = day5, individual animals (F and M)
[3] = day28, individual animals (F and M)

## N.N.[Cl][Pt][Cl] [Cisplatin]
kidney, female rats, day1
  normalized Real Time PCR MUSCYCG1R_DB81_seg19-20: 0.86 and 0.81
  normalized Real Time PCR RATRAB13X_DB81_seg15-17: 0.82 and 1.11 and 1.1
  normalized Real Time PCR RATRAB13X_DB81_seg22: 0.88 and 0.87 and 1.02
  normalized Real Time PCR W33294_DB81_seg44: 1 and 0.95
kidney, female rats, day5
  normalized Real Time PCR MUSCYCG1R_DB81_seg19-20: 2.77 and 3.44 and 2.45
  normalized Real Time PCR RATRAB13X_DB81_seg15-17: 1.37 and 1.53
  normalized Real Time PCR RATRAB13X_DB81_seg22: 1.71 and 1.92 and 1.99
  normalized Real Time PCR W33294_DB81_seg23: 2.03 and 1.99 and 1.58
  normalized Real Time PCR W33294_DB81_seg44: 2.31 and 2.19 and 2.15
kidney, female rats, day28
  normalized Real Time PCR MMU09507_DB81_seg15: 8.1 and 6.58 and 5.53
  normalized Real Time PCR MUSCYCG1R_DB81_seg19-20: 1.64 and 2.47 and 1.67
  normalized Real Time PCR RATRAB13X_DB81_seg15-17: 1.33
  normalized Real Time PCR RATRAB13X_DB81_seg22: 0.61 and 0.65 and 0.89
  normalized Real Time PCR W33294_DB81_seg23: 0.95 and 0.97 and 0.82
kidney, male rats, day1
  normalized Real Time PCR MUSCYCG1R_DB81_seg19-20: 0.85 and 0.71 and 1.18
  normalized Real Time PCR RATRAB13X_DB81_seg15-17: 0.73 and 0.84 and 0.98
  normalized Real Time PCR RATRAB13X_DB81_seg22: 0.65 and 0.66 and 1.11
  normalized Real Time PCR W33294_DB81_seg23: 0.59 and 0.49 and 0.64
  normalized Real Time PCR W33294_DB81_seg44: 0.6 and 0.84 and 0.96
kidney, male rats, day5
  normalized Real Time PCR MUSCYCG1R_DB81_seg19-20: 1.83 and 1.47 and 2.33
  normalized Real Time PCR RATRAB13X_DB81_seg15-17: 1.8 and 1.03 and 1.77
  normalized Real Time PCR RATRAB13X_DB81_seg22: 1.53 and 1.2
  normalized Real Time PCR W33294_DB81_seg44: 1.47 and 1.51
kidney, male rats, day28
  normalized Real Time PCR MUSCYCG1R_DB81_seg19-20: 2.13 and 1.97 and 2.21
  normalized Real Time PCR RATRAB13X_DB81_seg15-17: 0.95
  normalized Real Time PCR RATRAB13X_DB81_seg22: 0.66 and 0.76 and 0.65
  normalized Real Time PCR W33294_DB81_seg23: 0.95 and 0.82 and 0.88
  normalized Real Time PCR W33294_DB81_seg44: 0.83 and 0.89
[1]
  H33998_DB71_seg19 normalized Real Time PCR: 0.85 and 1 and 0.87 and 0.65 and 0.75 and 1.14
  MUSCYCG1R_DB81_seg15-17 normalized Real Time PCR: 0.77 and 0.85 and 0.72 and 0.54 and 0.35 and 0.67
  RATLRFI_DB71_seg9 normalized Real Time PCR: 1.49 and 0.3 and 0.57 and 0.24 and 0.2 and 0.37
  RATRAB13X_DB71_seg11-13 normalized Real Time PCR: 0.91 and 1.09 and 0.87 and 1.15
  RNU24174_DB71_seg8 normalized Real Time PCR: 0.57 and 0.32 and 0.36 and 0.2 and 0.27 and 0.69
  W41270_DB81_seg11 normalized Real Time PCR: 1.11 and 0.86 and 0.76 and 0.33 and 0.63 and 0.71
  W64472_DB81_seg2 normalized Real Time PCR: 0.8 and 0.54 and 0.55 and 0.3 and 0.51 and 0.92
  W83813_DB81_seg27 normalized Real Time PCR: 1.1 and 0.97 and 0.99 and 0.5 and 0.66 and 0.94
day1, individual animals
  AA686189_DB71_seg6 normalized Real Time PCR expression: 0.7 and 0.44 and 0.66 and 0.48 and 0.42 and 0.68
  AA799594_DB71_seg0 normalized Real Time PCR expression: 0.39 and 0.98 and 0.59 and 0.99 and 0.87
  AA964541_DB71_seg0 normalized Real Time PCR expression: 0.88 and 0.58 and 0.41 and 0.4 and 0.29 and 0.56
  AI045075_DB71_seg6 normalized Real Time PCR expression: 1.01 and 0.68 and 0.79 and 0.64 and 0.62 and 1.09
  AI454051_DB71_seg0 normalized Real Time PCR expression: 0.94 and 1.22 and 1 and 0.65 and 0.96 and 1.45
  AI502869_DB71_seg0 normalized Real Time PCR expression: 0.67 and 0.78 and 0.74 and 0.87 (2×) and 0.84
  AW919147_DB71_seg0 normalized Real Time PCR expression: 0.8 and 1.09 and 0.87 (2×) and 0.88
  BI293562_DB71_seg2 normalized Real Time PCR expression: 0.74 and 0.5 and 0.38 and 0.7 and 0.39 and 0.71
  H31045_DB71_seg5 normalized Real Time PCR expression: 0.24 and 0.28 and 0.22 and 0.82 and 0.21 and 1.22
  H31799_DB71_seg23 normalized Real Time PCR expression: 1.03 and 1.09 and 1.22
  H31883_DB71_seg13 normalized Real Time PCR expression: 2.03 and 0.74 and 0.71 and 1.52
[2]
  H33998_DB71_seg19 normalized Real Time PCR: 1.79 and 1.84 and 1.95 and 1.49 and 0.46 and 2.14
  MUSCYCG1R_DB81_seg15-17 normalized Real Time PCR: 3.12 and 3.59 and 2.07 and 2.31 and 0.92 and 2.34
  RATLRFI_DB71_seg9 normalized Real Time PCR: 0.79 and 0.44 and 0.32 and 0.65 and 0.34 and 1.97
  RATRAB13X_DB71_seg11-13 normalized Real Time PCR: 1.01 and 1.02 and 0.74
  RNU24174_DB71_seg8 normalized Real Time PCR: 0.97 and 0.7 and 0.6 and 1.3 and 0.31 and 3.6
  W41270_DB81_seg11 normalized Real Time PCR: 1.97 and 1.9 and 1.79 and 1.51 and 3.12
  W64472_DB81_seg2 normalized Real Time PCR: 2.23 and 2.1 and 1.99 and 2.64 and 0.95 and 4.55
  W83813_DB81_seg27 normalized Real Time PCR: 2.12 (2×) and 2.25 and 1.39 and 0.94 and 1.41
day5, individual animals
  AA686189_DB71_seg6 normalized Real Time PCR expression: 0.93 and 0.76 and 1.5 and 0.69 and 4.48
  AA799594_DB71_seg0 normalized Real Time PCR expression: 1.34 and 1.11 and 0.93 and 0.71 and 0.75
  AA964541_DB71_seg0 normalized Real Time PCR expression: 0.99 and 0.74 and 0.76 and 1.94 and 0.67 and 4.8
  AI045075_DB71_seg6 normalized Real Time PCR expression: 0.86 and 0.53 and 0.76 and 1.93 and 0.81 and 1.33
  AI454051_DB71_seg0 normalized Real Time PCR expression: 1.43 and 1.39 and 0.92 and 0.86
  AI502869_DB71_seg0 normalized Real Time PCR expression: 0.8 and 0.93 and 0.74 and 0.52 and 0.61
  AW919147_DB71_seg0 normalized Real Time PCR expression: 1.39 and 0.83 and 0.8 and 0.88
  BI293562_DB71_seg2 normalized Real Time PCR expression: 0.74 and 0.67 and 0.7 and 3.45 and 0.81 and 1.76
  H31045_DB71_seg5 normalized Real Time PCR expression: 1.8 and 0.34 and 0.51 and 3.25 and 0.23 and 1.66
  H31799_DB71_seg23 normalized Real Time PCR expression: 1.1 and 0.74 and 1.23 and 0.92
  H31883_DB71_seg13 normalized Real Time PCR expression: 1.44 and 1.2 and 1.73 and 1.3 and 2.43
[3]
  H33998_DB71_seg19 normalized Real Time PCR: 0.55 and 0.69 and 0.85 and 0.61 and 0.62 and 0.41
  MUSCYCG1R_DB81_seg15-17 normalized Real Time PCR: 1.96 and 2.57 and 2.7 and 2.09 and 2.31 and 1.93
  RATLRFI_DB71_seg9 normalized Real Time PCR: 2.33 and 3.05 and 3.8 and 3.03 and 2.4 and 2.26
  RATRAB13X_DB71_seg11-13 normalized Real Time PCR: 1.62 and 1.78 and 1.57 and 1.24 and 1.31
  RNU24174_DB71_seg8 normalized Real Time PCR: 8.38 and 12.63 and 12.14 and 10.21 and 7.3 and 8.08
  W41270_DB81_seg11 normalized Real Time PCR: 1.45 (2×) and 1.8 and 1.48 and 1.94 and 1.11
  W64472_DB81_seg2 normalized Real Time PCR: 1.81 and 3.16 and 2.87 and 2.8 and 3.04 and 1.65
  W83813_DB81_seg27 normalized Real Time PCR: 0.71 and 0.7 and 0.78 and 0.51 (2×) and 0.57
day28, individual animals
  AA686189_DB71_seg6 normalized Real Time PCR expression: 0 and 3.57 and 6.06 and 3.15 and 4.29 and 3.86
  AA799594_DB71_seg0 normalized Real Time PCR expression: 0.74 and 0.64 and 0.52 and 0.36 and 0.97 and 0.62
  AA964541_DB71_seg0 normalized Real Time PCR expression: 2.63 and 5.28 and 6.85 and 3.72 and 4.71 and 3.97
  AI045075_DB71_seg6 normalized Real Time PCR expression: 2.17 and 3.09 and 3.37 and 3.18 and 2.72 and 1.57
  AI454051_DB71_seg0 normalized Real Time PCR expression: 0.68 and 0.8 and 0.87 and 0.73 and 0.82 and 0.78
  AI502869_DB71_seg0 normalized Real Time PCR expression: 1.03 (2×) and 0.74 and 1.35 and 0.95
  AW919147_DB71_seg0 normalized Real Time PCR expression: 0.54 (2×) and 0.72 and 0.66 and 0.84
  BI293562_DB71_seg2 normalized Real Time PCR expression: 5.98 and 12.27 and 8.01 and 6.24 and 2.93 and 3.33
  H31045_DB71_seg5 normalized Real Time PCR expression: 0.73 (2×) and 0.81 and 0.88 and 2.92 and 2.96
  H31799_DB71_seg23 normalized Real Time PCR expression: 1.15 and 0.98 and 0.88 and 0.9
  H31883_DB71_seg13 normalized Real Time PCR expression: 2.72 and 4.07 and 3.83 and 2.41 and 3.37 and 2.23
